The test system of experiment [1] is HCT116 colorectal cancer cells. Put plainly: Cisplatin sensitization assay, 96 h cell viability (MTS). The format is cell-based. The settings on record: concentration of compound required to reduce the IC50 of Cisplatin alone by at least 3-fold; HCT116, 96 h MTS. The protocol: Compounds can be screened for their ability to sensitize HCT116 colorectal cancer cells to Cisplatin using a 96 h cell viability (MTS) assay. […] Compounds and Cisplatin are then both added simultaneously to the cell media in 2-fold serial dilutions from a top final concentration of 10 μM as a full matrix of concentrations in a final cell volume of 200 μl and the cells are then incubated at 37° C. in 5% CO2. After 96 h, 40 μl of MTS reagent (Promega G358a) is added to each well and the cells are incubated for lh at 37° C. in 5% CO2. Finally, absorbance is measured at 490 nm using a SpectraMax Plus 384 reader (Molecular Devices) and the concentration of compound required to reduce the IC50 of Cisplatin alone by at least 3-fold (to 1 decimal place) can be reported.

The target in the next experiment is T1, full-length ATR (Homo sapiens, UniProt Q13535).
T1 construct: Assays were carried out at 25° C. in the presence of 5 nM full-length ATR
Put plainly: ATR inhibition assay, radioactive-phosphate incorporation. The format is biochemical. The settings on record: Ki(app); 5 nM full-length ATR, 10 μM ATP, 800 μM target peptide, 25° C. The protocol: Compounds were screened for their ability to inhibit ATR kinase using a radioactive-phosphate incorporation assay. Assays were carried out in a mixture of 50 mM Tris/HCl (pH 7.5), 10 mM MgCl2 and 1 mM DTT. Final substrate concentrations were 10 μM [γ-33P]ATP (3 mCi 33P ATP/mmol ATP, Perkin Elmer) and 800 μM target peptide (ASELPASQPQPFSAKKK (SEQ. ID NO: 1)).
Assays were carried out at 25° C. in the presence of 5 nM full-length ATR. An assay stock buffer solution was prepared containing all of the reagents listed above, with the exception of ATP and the test compound of interest. 13.5 μL of the stock solution was placed in a 96 well plate followed by addition of 2 μL of DMSO stock containing serial dilutions of the test compound (typically starting from a final concentration of 15 μM 3-fold serial dilutions) in duplicate (final DMSO concentration 7%). The plate was pre-incubated for 10 minutes at 25° C. and the reaction initiated by addition of 15 μL [γ-33P]ATP (final concentration 10 μM).
The reaction was stopped after […] by the addition of 30 μL 0.1M phosphoric acid containing 2 mM ATP. A multiscreen phosphocellulose filter 96-well plate (Millipore, Cat no. MAPHN0B50) was pretreated with 100 μL 0.2M phosphoric acid prior to the addition of 45 μL of the stopped assay mixture. The plate was washed with 5×200 μL 0.2M phosphoric acid. After drying, 100 μL Optiphase ‘SuperMix’ liquid scintillation cocktail (Perkin Elmer) was added to the well prior to scintillation counting (1450 Microbeta Liquid Scintillation Counter, Wallac).
After removing mean background values for all of the data points, Ki(app) data were calculated from non-linear regression analysis of the initial rate data using the Prism software package (GraphPad Prism version 3.0cx for Macintosh, GraphPad Software, San Diego, Calif., USA).

In experiment [2] the test system is HCT116 colorectal cancer cells. Put plainly: Single agent HCT116 activity, 96 h cell viability (MTS) assay. It counts as cell-based. To be noted: Homo sapiens, HCT-116; 96 h MTS cell viability, compound alone; read-out: Single agent HT116 IC50. The protocol: Compounds can be screened for single agent activity against HCT116 colorectal cancer cells using a 96 h cell viability (MTS) assay. HCT116 are plated at 470 cells per well in 96-well polystyrene plates (Costar 3596) in 150 μl of McCoy's 5A media (Sigma M8403) supplemented with 10% foetal bovine serum (JRH Biosciences 12003), Penicillin/Streptomycin solution diluted 1:100 (Sigma P7539), and 2 mM L-glumtamine (Sigma G7513), and allowed to adhere overnight at 37° C. in 5% CO2. Compounds are then added to the cell media in 2-fold serial dilutions from a top final concentration of 10 μM as a full matrix of concentrations in a final cell volume of 200 μl, and the cells are then incubated at 37° C. in 5% CO2. After 96 h, 40 μl of MTS reagent (Promega G358a) is added to each well and the cells are incubated for lh at 37° C. in 5% CO2. Finally, absorbance is measured at 490 nm using a SpectraMax Plus 384 reader (Molecular Devices) and IC50 values can be calculated.

The target of a further experiment is T2, intracellular ATR (Homo sapiens, UniProt Q13535).
T2 construct: endogenous in cells; host or cells: HT29
Put plainly: Cellular ATR inhibition assay, H2AX phosphorylation in hydroxyurea treated HT29 cells. It counts as cell-based. To be noted: 2 mM hydroxyurea, phosphorylated H2AX Ser139 positive nuclei. The protocol:
Compounds can be screened for their ability to inhibit intracellular ATR using an immunofluorescence microscopy assay to detect phosphorylation of the ATR substrate histone H2AX in hydroxyurea treated cells. HT29 cells are plated at 14,000 cells per well in 96-well black imaging plates (BD 353219) in McCoy's 5A media (Sigma M8403) supplemented with 10% foetal bovine serum (JRH Biosciences 12003), Penicillin/Streptomycin solution diluted 1:100 (Sigma P7539), and 2 mM L-glumtamine (Sigma G7513), and allowed to adhere overnight at 37° C. in 5% CO2. Compounds are then added to the cell media from a final concentration of 25 μM in 3-fold serial dilutions and the cells are incubated at 37° C. in 5% CO2. After 15 min, hydroxyurea (Sigma H8627) is added to a final concentration of 2 mM.
After 45 min of treatment with hydroxyurea, the cells are washed in PBS, fixed for 10 min in 4% formaldehyde diluted in PBS (Polysciences Inc 18814), washed in 0.2% Tween-20 in PBS (wash buffer), and permeabilised for 10min in 0.5% Triton X-100 in PBS, all at room temperature. The cells are then washed once in wash buffer and blocked for 30 min at room temperature in 10% goat serum (Sigma G9023) diluted in wash buffer (block buffer). To detect H2AX phosphorylation levels, the cells are then incubated for 1 h at room temperature in primary antibody (mouse monoclonal anti-phosphorylated histone H2AX Ser139 antibody; Upstate 05-636) diluted 1:250 in block buffer. The cells are then washed five times in wash buffer before incubation for lh at room temperature in the dark in a mixture of secondary antibody (goat anti-mouse Alexa Fluor 488 conjugated antibody; Invitrogen A11029) and Hoechst stain (Invitrogen H3570); diluted 1:500 and 1:5000, respectively, in wash buffer. The cells are then washed five times in wash buffer and finally 100 ul PBS is added to each well before imaging.
Cells are imaged for Alexa Fluor 488 and Hoechst intensity using the BD Pathway 855 Bioimager and Attovision software (BD Biosciences, Version 1.6/855) to quantify phosphorylated H2AX Ser139 and DNA staining, respectively. The percentage of phosphorylated H2AX-positive nuclei in a montage of 9 images at 20× magnification is then calculated for each well using BD Image Data Explorer software (BD Biosciences Version 2.2.15). Phosphorylated H2AX-positive nuclei are defined as Hoechst-positive regions of interest containing Alexa Fluor 488 intensity at 1.75-fold the average Alexa Fluor 488 intensity in cells not treated with hydroxyurea. The percentage of H2AX positive nuclei is finally plotted against concentration for each compound and IC50s for intracellular ATR inhibition are determined using Prism software (GraphPad Prism version 3.0cx for Macintosh, GraphPad Software, San Diego Calif., USA).

Molecules are shown by their SMILES.

T2 sequence (Q13535 whole entry): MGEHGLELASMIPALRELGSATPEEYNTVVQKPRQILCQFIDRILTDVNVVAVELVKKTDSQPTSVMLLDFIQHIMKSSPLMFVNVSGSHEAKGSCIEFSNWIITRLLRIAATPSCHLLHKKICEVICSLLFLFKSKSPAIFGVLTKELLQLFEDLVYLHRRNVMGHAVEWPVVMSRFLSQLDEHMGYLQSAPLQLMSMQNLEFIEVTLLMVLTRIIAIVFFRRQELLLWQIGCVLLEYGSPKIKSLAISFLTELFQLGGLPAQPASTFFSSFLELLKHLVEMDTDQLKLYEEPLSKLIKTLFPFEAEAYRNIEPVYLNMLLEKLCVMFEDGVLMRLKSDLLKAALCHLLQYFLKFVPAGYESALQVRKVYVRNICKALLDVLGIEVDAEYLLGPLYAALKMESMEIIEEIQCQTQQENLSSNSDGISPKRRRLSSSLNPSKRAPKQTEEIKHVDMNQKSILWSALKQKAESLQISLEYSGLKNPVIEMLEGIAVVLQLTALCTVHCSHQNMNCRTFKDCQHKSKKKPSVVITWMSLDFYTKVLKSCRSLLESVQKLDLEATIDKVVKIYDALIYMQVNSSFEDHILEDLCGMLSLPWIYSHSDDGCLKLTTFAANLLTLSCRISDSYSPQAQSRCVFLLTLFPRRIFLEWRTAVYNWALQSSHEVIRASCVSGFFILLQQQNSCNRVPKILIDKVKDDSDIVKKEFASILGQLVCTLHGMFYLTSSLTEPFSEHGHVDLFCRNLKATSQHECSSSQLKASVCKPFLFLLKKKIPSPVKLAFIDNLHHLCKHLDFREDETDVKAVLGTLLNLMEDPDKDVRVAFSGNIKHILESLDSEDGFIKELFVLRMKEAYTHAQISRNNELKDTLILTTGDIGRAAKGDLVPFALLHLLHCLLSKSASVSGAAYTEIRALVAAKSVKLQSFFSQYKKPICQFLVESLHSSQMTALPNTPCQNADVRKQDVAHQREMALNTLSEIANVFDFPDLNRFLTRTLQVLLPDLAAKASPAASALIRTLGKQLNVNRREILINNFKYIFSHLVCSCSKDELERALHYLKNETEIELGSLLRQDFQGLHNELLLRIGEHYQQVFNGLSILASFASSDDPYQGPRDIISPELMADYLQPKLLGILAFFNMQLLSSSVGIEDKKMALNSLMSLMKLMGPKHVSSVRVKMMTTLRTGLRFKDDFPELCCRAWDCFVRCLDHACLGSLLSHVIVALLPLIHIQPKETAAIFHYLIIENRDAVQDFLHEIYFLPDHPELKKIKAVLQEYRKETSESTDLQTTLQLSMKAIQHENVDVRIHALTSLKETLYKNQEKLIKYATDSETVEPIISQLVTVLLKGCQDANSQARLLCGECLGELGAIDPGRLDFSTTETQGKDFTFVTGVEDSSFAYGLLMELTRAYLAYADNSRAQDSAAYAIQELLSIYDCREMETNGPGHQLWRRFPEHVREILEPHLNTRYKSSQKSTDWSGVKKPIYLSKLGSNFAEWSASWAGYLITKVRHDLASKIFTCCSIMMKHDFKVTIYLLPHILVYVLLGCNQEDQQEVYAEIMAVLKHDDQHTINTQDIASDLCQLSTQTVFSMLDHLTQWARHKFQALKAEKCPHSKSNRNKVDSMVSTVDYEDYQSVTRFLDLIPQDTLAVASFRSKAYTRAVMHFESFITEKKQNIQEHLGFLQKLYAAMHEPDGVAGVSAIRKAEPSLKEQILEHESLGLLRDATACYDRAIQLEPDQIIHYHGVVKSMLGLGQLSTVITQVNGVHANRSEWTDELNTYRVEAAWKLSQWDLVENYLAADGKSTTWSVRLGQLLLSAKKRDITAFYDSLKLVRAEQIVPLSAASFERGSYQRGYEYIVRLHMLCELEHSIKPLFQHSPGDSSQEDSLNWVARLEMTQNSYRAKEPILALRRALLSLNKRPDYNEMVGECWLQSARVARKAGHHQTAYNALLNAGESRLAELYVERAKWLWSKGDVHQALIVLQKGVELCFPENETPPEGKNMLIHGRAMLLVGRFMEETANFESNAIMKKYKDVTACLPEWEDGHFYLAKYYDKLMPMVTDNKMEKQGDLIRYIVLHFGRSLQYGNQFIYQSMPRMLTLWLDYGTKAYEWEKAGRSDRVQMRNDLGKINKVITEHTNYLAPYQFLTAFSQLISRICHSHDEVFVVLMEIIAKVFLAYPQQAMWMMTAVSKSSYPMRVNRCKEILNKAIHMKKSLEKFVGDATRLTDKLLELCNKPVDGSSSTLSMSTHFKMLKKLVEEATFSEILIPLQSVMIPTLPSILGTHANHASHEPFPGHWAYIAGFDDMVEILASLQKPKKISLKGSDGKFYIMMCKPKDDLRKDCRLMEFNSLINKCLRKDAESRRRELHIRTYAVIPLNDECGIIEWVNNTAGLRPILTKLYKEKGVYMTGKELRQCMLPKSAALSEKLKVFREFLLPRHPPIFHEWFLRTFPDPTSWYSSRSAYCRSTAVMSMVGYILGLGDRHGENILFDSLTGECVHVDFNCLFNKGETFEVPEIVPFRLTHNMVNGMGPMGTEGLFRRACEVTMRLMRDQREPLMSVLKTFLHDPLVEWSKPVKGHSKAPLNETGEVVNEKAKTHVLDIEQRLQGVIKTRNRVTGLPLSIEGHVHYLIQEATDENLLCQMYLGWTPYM
T2 sequence (Q8WXE1 whole entry partner): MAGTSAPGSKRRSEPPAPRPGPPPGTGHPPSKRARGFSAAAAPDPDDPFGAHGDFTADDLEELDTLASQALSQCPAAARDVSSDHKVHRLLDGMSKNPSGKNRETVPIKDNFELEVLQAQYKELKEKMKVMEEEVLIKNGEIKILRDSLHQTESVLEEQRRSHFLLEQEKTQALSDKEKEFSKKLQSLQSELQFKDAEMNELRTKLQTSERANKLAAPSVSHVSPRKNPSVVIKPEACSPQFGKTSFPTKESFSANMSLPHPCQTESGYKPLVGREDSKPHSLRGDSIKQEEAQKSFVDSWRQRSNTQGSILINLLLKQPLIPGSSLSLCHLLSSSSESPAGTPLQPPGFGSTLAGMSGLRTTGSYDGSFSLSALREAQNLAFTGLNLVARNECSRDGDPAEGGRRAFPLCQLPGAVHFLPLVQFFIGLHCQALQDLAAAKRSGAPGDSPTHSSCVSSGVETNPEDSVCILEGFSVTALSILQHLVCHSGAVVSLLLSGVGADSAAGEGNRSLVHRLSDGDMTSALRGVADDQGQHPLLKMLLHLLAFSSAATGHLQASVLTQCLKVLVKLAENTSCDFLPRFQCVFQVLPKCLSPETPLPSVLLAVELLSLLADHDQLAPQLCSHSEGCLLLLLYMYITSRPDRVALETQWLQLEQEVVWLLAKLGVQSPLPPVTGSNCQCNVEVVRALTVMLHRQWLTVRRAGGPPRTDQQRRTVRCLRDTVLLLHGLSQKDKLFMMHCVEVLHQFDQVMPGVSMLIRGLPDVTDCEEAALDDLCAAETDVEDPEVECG
T1 sequence (Q13535 whole entry): as the sequence (Q13535 whole entry) above

With `CC(C)S(=O)(=O)c1ccc(-c2cnc(N)c(-c3cc(-c4ccc(NCC5CCCCN5)cc4)no3)n2)cc1` (stereo not drawn) [Compound I-1, 5-(4-isopropylsulfonylphenyl)-3-[3-[4-(2-piperidylmethylamino)phenyl]isoxazol-5-yl]pyrazin-2-amine], the Cisplatin sensitization in experiment [1] is on record as 156 nM. For the same compound, at full-length ATR, the Ki amounted to 0.635 nM. Besides, the figures for the half-maximal inhibitory concentration (IC50) (in experiment [2]; on intracellular ATR) were 210 nM and 62 nM, respectively.

`CC(C)S(=O)(=O)c1ccc(-c2cnc(N)c(-c3cc(-c4ccc(NCC5CCN5)cc4)no3)n2)cc1` (stereo not drawn) [Compound I-2, 3-[3-[4-(azetidin-2-ylmethylamino)phenyl]isoxazol-5-yl]-5-(4-isopropylsulfonylphenyl)pyrazin-2-amine]: the Cisplatin sensitization in experiment [1] amounted to 78 nM. For the same compound, at full-length ATR, the Ki was 0.6 nM. For the same compound, the figures for the IC50 (in experiment [2]; against intracellular ATR) were 140 nM and 40 nM, respectively.

Turning to `CC(C)S(=O)(=O)c1ccc(-c2cnc(N)c(-c3cc(-c4ccc(NC[C@@H]5CCCN5)cc4)no3)n2)cc1` [Compound I-3, (S)-5-(4-(isopropylsulfonyl)phenyl)-3-(3-(4-((pyrrolidin-2-ylmethyl)amino)phenyl)isoxazol-5-yl)pyrazin-2-amine], the Cisplatin sensitization in experiment [1] was determined as 20 nM. On full-length ATR, the Ki is 0.49 nM. The IC50 in experiment [2] was found to be 83 nM; against intracellular ATR, 14 nM.

Regarding `CC(C)S(=O)(=O)c1ccc(-c2cnc(N)c(-c3cc(-c4ccc(NC[C@H]5CCCN5)cc4)no3)n2)cc1` [Compound I-4, (R)-5-(4-(isopropylsulfonyl)phenyl)-3-(3-(4-((pyrrolidin-2-ylmethyl)amino)phenyl)isoxazol-5-yl)pyrazin-2-amine], the Cisplatin sensitization in experiment [1] is recorded as 39 nM. Moreover, the Ki on full-length ATR worked out at 0.35 nM. The IC50 in experiment [2] worked out at 52 nM; against intracellular ATR, 13 nM.

As for `CC(C)S(=O)(=O)c1ccc(-c2cnc(N)c(-c3cc(-c4ccc(NCC5CCCN5)cc4)no3)n2)cc1` (stereo not drawn) [Compound I-5, 5-(4-isopropylsulfonylphenyl)-3-[3-[4-(pyrrolidin-2-ylmethylamino)phenyl]isoxazol-5-yl]pyrazin-2-amine], the Cisplatin sensitization in experiment [1] is 20 nM. Also, the Ki on full-length ATR is less than 0.1 nM. Also, the IC50 is 26 nM in experiment [2] and less than 10 nM on intracellular ATR.

As for `CC(C)S(=O)(=O)c1ccc(-c2cnc(N)c(-c3cc(-c4ccc(NCCN(C)C)cc4)no3)n2)cc1` [Compound I-6, N-(4-(5-(3-amino-6-(4-(isopropylsulfonyl)phenyl)pyrazin-2-yl)isoxazol-3-yl)phenyl)-N,N-dimethylethane-1,2-diamine], in experiment [1], the Cisplatin sensitization came out at 78 nM. The Ki at full-length ATR turned out to be 0.405 nM. For the same compound, the IC50 in experiment [2] came to 720 nM; against intracellular ATR, 260 nM.

For the origin of these results see patent publication US8912198B2, “Compounds useful as inhibitors of ATR kinase” (Vertex Pharmaceuticals Incorporated, priority 2012, dated 2014).
